In brackets after ≈: the same amount, converted by molar mass. Counter-ions that a name gives are not always drawn. Like-named read-outs stand apart in the source and are kept apart here.
Experiments:
[1] = system: Sclerotinia sclerotiorum; test: microbe, parasite or virus in culture; assay type: cell-based
[2] = system: Phytophthora infestans (Mont) de Bary; test: microbe, parasite or virus in culture; assay type: cell-based; conditions: for inhibition at 50 µg/mL: Phytophthora infestans
[3] = system: tobacco mosaic virus (TMV); test: Anti-TMV curative activity (treatment mode), live friction inoculation on tobacco seedlings; assay type: in vivo; conditions: for inhibition at 100 µg/mL: Tobacco mosaic virus
[4] = system: tobacco mosaic virus (TMV); test: Anti-TMV protective activity (protection mode), live friction inoculation on tobacco seedlings; assay type: in vivo; conditions: for inhibition at 100 µg/mL: Tobacco mosaic virus, read-out: Anti-TMV activity, Protection effect (inhibition)
[5] = system: tobacco mosaic virus (TMV); test: Anti-TMV inducing activity (induction mode), tobacco seedlings; assay type: in vivo; conditions: for inhibition at 100 µg/mL: Tobacco mosaic virus
[6] = system: Pellicularia sasakii; test: Fungicidal activity, fungi growth rate method, PS; assay type: cell-based; conditions: 50 μg/mL
[7] = system: Botrytis cinerea; test: Fungicidal activity, fungi growth rate method, BC; assay type: cell-based; conditions: 50 μg/mL; for inhibition at 50 µg/mL: Botrytis cinerea
[8] = system: wheat Gibberella zeae; test: microbe, parasite or virus in culture; assay type: cell-based; conditions: for inhibition at 50 µg/mL: Fusarium graminearum
[9] = system: Cercospora arachidicola; test: Fungicidal activity, fungi growth rate method, CA; assay type: cell-based; conditions: 50 μg/mL; for inhibition at 50 µg/mL: Mycosphaerella arachidis
[10] = system: Physalospora piricola; test: Fungicidal activity, fungi growth rate method, PP; assay type: cell-based; conditions: 50 μg/mL
[11] = system: Alternaria solani; test: Fungicidal activity, fungi growth rate method, AS; assay type: cell-based; conditions: 50 μg/mL; for inhibition at 50 µg/mL: Alternaria solani
[12] = system: tobacco mosaic virus (TMV); test: Anti-TMV inactivation activity (inactivation mode), compound mixed with TMV before inoculation of tobacco leaves; assay type: in vivo; conditions: for inhibition at 100 µg/mL: Tobacco mosaic virus, read-out: Anti-TMV activity, Inactivation effect (inhibition)
[13] = system: Rhizoctonia cerealis; test: Fungicidal activity, fungi growth rate method, RC; assay type: cell-based; conditions: 50 μg/mL; for inhibition at 50 µg/mL: Ceratobasidium cereale
[14] = Sclerotinia sclerotiorum, 50 μg/mL, read-out: Fungicidal activity, inhibition, SS
[15] = read-out: Fungicidal activity, inhibition, PI
[16] = read-out: Anti-TMV activity, Curative effect (inhibition), 100 μg/mL, tobacco seedlings, checked on seventh day
[17] = read-out: Anti-TMV activity, Induction effect (inhibition), 100 μg/mL, tobacco seedlings
[18] = read-out: Fungicidal activity, inhibition, PS
[19] = read-out: Fungicidal activity, inhibition, BC
[20] = read-out: Fungicidal activity, inhibition, GZ
[21] = read-out: Fungicidal activity, inhibition, CA
[22] = read-out: Fungicidal activity, inhibition, PP
[23] = read-out: Fungicidal activity, inhibition, AS
[24] = read-out: Fungicidal activity, inhibition, RC
[25] = 100 μg/mL, tobacco seedlings, checked on seventh day
[26] = 100 μg/mL, tobacco leaves, checked on seventh day
[27] = Sclerotinia sclerotiorum, 50 μg/mL, read-out: Fungicidal activity (inhibition) against SS: Sclerotinia sclerotiorum
[28] = read-out: Fungicidal activity (inhibition) against PI: Phytophthora infestans (Mont) de Bary
[29] = read-out: Fungicidal activity (inhibition) against PS: Pellicularia sasakii
[30] = read-out: Fungicidal activity (inhibition) against BC: Botrytis cinerea
[31] = read-out: Fungicidal activity (inhibition) against GZ: wheat Gibberella zeae
[32] = read-out: Fungicidal activity (inhibition) against CA: Cercospora arachidicola
[33] = read-out: Fungicidal activity (inhibition) against PP: Physalospora piricola
[34] = read-out: Fungicidal activity (inhibition) against AS: Alternaria solani
[35] = read-out: Fungicidal activity (inhibition) against RC: Rhizoctonia cerealis
[36] = 100 μg/mL, tobacco seedlings, read-out: Anti-TMV activity, Induction effect (inhibition)

Compound	inhibition at 50 µg/mL [1, 14] [%]	melting point [°C]	inhibition at 50 µg/mL [2, 15] [%]	inhibition at 100 µg/mL [3, 16] [%]	inhibition at 100 µg/mL [4] [%]	inhibition at 100 µg/mL [5, 17] [%]	inhibition at 50 µg/mL [6, 18] [%]	inhibition at 50 µg/mL [7, 19] [%]	inhibition at 50 µg/mL [8, 20] [%]	inhibition at 50 µg/mL [9, 21] [%]	inhibition at 50 µg/mL [10, 22] [%]	inhibition at 50 µg/mL [11, 23] [%]	inhibition at 100 µg/mL [12] [%]	inhibition at 50 µg/mL [13, 24] [%]	other results
COC(=O)[C@H]1CCCN1C(=O)/C(=C/c1ccccc1)NC(=O)c1ccccc1 [Compound 37, (R,Z)-N-[1-[(2-methylpyrrolidinecarboxylate)]carbonyl-2-phenylethenyl]benzamide]	56	155 to 157	5	25	2	40	6	21	23	13	0	17	0	13	–
O=C(N/C(=C\c1ccc(Br)cc1)C(=O)N1CCC(O)(c2ccc(Br)cc2)CC1)c1ccccc1 [Compound 19, (Z)-N-[1-[[4-(4-bromophenyl)-4-hydroxy-1-piperidinyl]carbonyl]-2-(4-bromophenyl)ethenyl]benzamide]	44	147 to 148	27	0	46	0	12	4	5	3	16	21	0	19	–
CSC(=O)c1cccc2nnsc12 [BTH, Acibenzolar-S-Methyl, reference compound]	–	–	–	–	–	–	–	–	–	–	–	–	–	–	Anti-TMV activity, Curative effect (inhibition) [3, 25]: 50.00%; Anti-TMV activity, Protection effect (inhibition) [4, 25]: 76%; Anti-TMV activity, Induction effect (inhibition) ([5]; 100 μg/mL, tobacco seedlings): 96%; Anti-TMV activity, Inactivation effect (inhibition) [12, 26]: 63%
O=C(N/C(=C\c1ccco1)C(=O)N1CCC(O)(c2ccc(Br)cc2)CC1)c1ccccc1 [Compound 25, (Z)-N-[1-[[4-(4-bromophenyl)-4-hydroxy-1-piperidinyl]carbonyl]-2-(2-furanyl)ethenyl]benzamide]	100	134 to 135	10	55	46	–	27	20	31	22	15	16	31	36	EC90 ([1]; Sclerotinia sclerotiorum, read-out: EC90 against S. sclerotiorum in vitro): 221 µg/mL (≈ 446 µM); inhibition at 50 µg/mL [1, 27]: 100%; inhibition at 50 µg/mL [2, 28]: < 25%; inhibition at 50 µg/mL [6, 29]: < 30%; inhibition at 50 µg/mL [7, 30]: ≤ 20%; inhibition at 50 µg/mL [8, 31]: < 45%; inhibition at 50 µg/mL [9, 32]: < 25%; inhibition at 50 µg/mL [10, 33]: < 20%; inhibition at 50 µg/mL [11, 34]: < 30%; inhibition at 50 µg/mL [13, 35]: 36%
O=C(N/C(=C\c1ccccc1)C(=O)N1CCC(O)(c2ccc(Br)cc2)CC1)C1CCNCC1 (as salt: hydrochloride) [Compound 4, (Z)-N-[1-[[4-(4-bromophenyl)-4-hydroxy-1-piperidinyl]carbonyl]-2-phenylethenyl]-1-piperidine-4-carboxamide-hydrochloride]	–	147 to 149	–	–	–	–	–	–	–	–	–	–	–	–	–
O=C(N/C(=C\c1cccs1)C(=O)N1CCC(O)(c2ccc(Br)cc2)CC1)c1ccccc1 [Compound 24, (Z)-N-[1-[[4-(4-bromophenyl)-4-hydroxy-1-piperidinyl]carbonyl]-2-(2-thienyl)ethenyl]benzamide]	67	180 to 182	17	0	36	–	18	14	23	16	10	15	1	19	inhibition at 50 µg/mL [1, 27]: 67%; inhibition at 50 µg/mL [2, 28]: < 25%; inhibition at 50 µg/mL [6, 29]: < 30%; inhibition at 50 µg/mL [7, 30]: ≤ 20%; inhibition at 50 µg/mL [8, 31]: < 45%; inhibition at 50 µg/mL [9, 32]: < 25%; inhibition at 50 µg/mL [10, 33]: < 20%; inhibition at 50 µg/mL [11, 34]: < 30%; inhibition at 50 µg/mL [13, 35]: < 20%
O=C(N/C(=C\c1ccccc1)C(=O)N1CCC(O)(c2ccc(Br)cc2)CC1)C1CCNCC1 [Compound 4, (Z)-N-[1-[[4-(4-bromophenyl)-4-hydroxy-1-piperidinyl]carbonyl]-2-phenylethenyl]-1-piperidine-4-carboxamide-hydrochloride]	47	–	11	0	1	1	9	24	43	6	12	21	3	23	–
NC(=O)c1ncn([C@@H]2O[C@H](CO)[C@@H](O)[C@H]2O)n1 [Ribavirin, ribavirin, reference compound]	–	–	–	28	58	–	–	–	–	–	–	–	–	–	inhibition at 100 µg/mL [5, 36]: 4%; inhibition at 100 µg/mL [12, 26]: 81%
CNCC(=O)N[C@@H](CO)C(=O)N[C@H]1[C@H](O)[C@@H](O)[C@H](n2ccc(N)nc2=O)O[C@@H]1C(N)=O [Ningnanmycin, ningnanmycin, reference compound]	–	–	–	63	71	82	–	–	–	–	–	–	58	–	Anti-TMV activity, Curative effect (inhibition) [3, 25]: 62%
O=C(N/C(=C\c1ccccc1)C(=O)N1CCC(O)(c2ccc(Br)cc2)CC1)c1ccccc1 [Compound 76, (Z)-N-[1-[[4-(4-bromophenyl)-4-hydroxy-1-piperidinyl]carbonyl]-2-phenylethenyl]benzamide, reference compound]	50	–	24	0	38	15	14	18	43	24	15	14	29	15	inhibition at 50 µg/mL [1, 27]: 50%; inhibition at 50 µg/mL [2, 28]: 24%; inhibition at 50 µg/mL [6, 29]: 14%; inhibition at 50 µg/mL [7, 30]: 18%; inhibition at 50 µg/mL [8, 31]: 43%; inhibition at 50 µg/mL [9, 32]: 24%; inhibition at 50 µg/mL [10, 33]: 15%; inhibition at 50 µg/mL [11, 34]: 14%; inhibition at 50 µg/mL [13, 35]: 15%
CO/C=C(/C(=O)OC)c1ccccc1Oc1cc(Oc2ccccc2C#N)ncn1 [azoxystrobin, reference compound]	–	–	–	–	–	–	–	–	–	–	–	–	–	–	Fungicidal activity, inhibition, SS ([1]; 50 μg/mL): 100%; Fungicidal activity (inhibition) against PI: Phytophthora infestans (Mont) de Bary ([2]; 50 μg/mL): 91%; Fungicidal activity (inhibition) against PS: Pellicularia sasakii [6]: 92%; Fungicidal activity (inhibition) against BC: Botrytis cinerea [7]: 78%; Fungicidal activity (inhibition) against GZ: wheat Gibberella zeae ([8]; 50 μg/mL): 100%; Fungicidal activity (inhibition) against CA: Cercospora arachidicola [9]: 81%; Fungicidal activity (inhibition) against PP: Physalospora piricola [10]: 81%; Fungicidal activity (inhibition) against AS: Alternaria solani [11]: 79%; Fungicidal activity (inhibition) against RC: Rhizoctonia cerealis [13]: 67%
Cc1ccc(NC(=O)c2snnc2C)cc1Cl [TDL, Tiadinil, reference compound]	–	–	–	–	–	–	–	–	–	–	–	–	–	–	inhibition at 100 µg/mL ([3]; 100 μg/mL, tobacco seedlings, checked on seventh day, read-out: Anti-TMV activity, Curative effect (inhibition)): 49%; inhibition at 100 µg/mL [4, 25]: 32%; inhibition at 100 µg/mL [5, 36]: 73%; inhibition at 100 µg/mL [12, 26]: 55%
